Molecule `CC(C)=CCn1c(=O)c(C2=Nc3ccccc3S(=O)(=O)N2)c(O)c2ccccc21` [Example 12, 3-(1,1-Dioxo-1,2-dihydrobenzo[1,2,4]thiadiazin-3-yl)-4-hydroxy-1-(3-methylbut-2-eneyl)-1H-quinolin-2-one] gave a melting point of 249.1 to 251.1 °C.

As for `O=c1c(C2=Nc3ccccc3S(=O)(=O)N2)c(O)c2ccccc2n1CCCCO` [Example 20, 3-(1,1-Dioxo-1,2-dihydrobenzo[1,2,4]thiadiazin-3-yl)-4-hydroxy-1-(4-hydroxybutyl)-1H-quinolin-2-one], the melting point lay within 238.4 to 239.6 °C.

The molecule `O=c1c(C2=Nc3ccccc3S(=O)(=O)N2)c(O)c2ccccc2n1CCCC(F)(F)F` [Example 18, 3-(1, l-Dioxo-1,2-dihydrobenzo[1,2,4]thiadiazin-3-yl)-4-hydroxy-1-(4,4,4-trifluorobutyl)-1H-quinolin-2-one] registered a melting point of 248.9 to 250 °C.

As for `O=c1c(C2=NS(=O)(=O)c3cc(I)ccc3N2)c(O)c2ccccc2n1CCC1CC1`, the melting point lay in the range of 234 to 236 °C.

Turning to `CC(Br)CCn1c(=O)c(C2=Nc3ccccc3S(=O)(=O)N2)c(O)c2ccccc21` (stereo not drawn) [Example 10, 1-(3-Bromobutyl)-3-(1,1-dioxo-1,2-dihydrobenzo[1,2,4]thiadiazin-3-yl)-4-hydroxy-1-1H-quinolin-2-one], the melting point was 190 to 194.5 °C (dec.).

The molecule `O=c1c(C2=Nc3ccccc3S(=O)(=O)N2)c(O)c2ccccc2n1CC1CCCCC1` [Example 11, 1-Cyclohexylmethyl-3-(1,1-dioxo-1,2-dihydrobenzo[1,2,4]thiadiazin-3-yl)-4-hydroxy-1H-quinolin-2-one] displayed a melting point of 232 to 235 °C.

The values above are taken from patent publication US20040147739A1, “Novel anti-infectives” (priority 2003, published 2004).
